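Results reflect a 48-hour exposure of cells in 96-well plates to compound at five concentrations. Abbreviation: GI50, concentration required for 50% inhibition of growth.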 Calls of active or inactive are those of the source. Cut-off read from the data, not from the text of the source: active = GI50 up to about 1.1 µM and inactive = higher.
Legend:
Assay in all cases: inhibition of tumour cell growth, NCI panel, 48 h
786-0 = test system: 786-0
A498 = test system: A498
A549 = test system: A549
ACHN = test system: ACHN
BT-549 = test system: BT-549
CAKI-1 = test system: CAKI-1
CCRF-CEM = test system: CCRF-CEM
COLO 205 = test system: COLO 205
DU-145 = test system: DU-145
EKVX = test system: EKVX
HCC 2998 = test system: HCC 2998
HCT-116 = test system: HCT-116
HCT-15 = test system: HCT-15
HL-60 = test system: HL-60
HOP-62 = test system: HOP-62
HOP-92 = test system: HOP-92
HT-29 = test system: HT-29
Hs-578T = test system: Hs-578T
IGROV-1 = test system: IGROV-1
K562 = test system: K562
KM12 = test system: KM12
LOX IMVI = test system: LOX IMVI
M14 = test system: M14
MCF7 = test system: MCF7
MDA-MB-231 = test system: MDA-MB-231
MDA-MB-435 = test system: MDA-MB-435
MDA-N = test system: MDA-N
MOLT-4 = test system: MOLT-4
Malme-3M = test system: Malme-3M
NCI-H226 = test system: NCI-H226
NCI-H23 = test system: NCI-H23
NCI-H460 = test system: NCI-H460
NCI-H522 = test system: NCI-H522
NCI/ADR-RES = test system: NCI/ADR-RES
OVCAR-3 = test system: OVCAR-3
OVCAR-4 = test system: OVCAR-4
OVCAR-5 = test system: OVCAR-5
OVCAR-8 = test system: OVCAR-8
PC-3 = test system: PC-3
RPMI-8226 = test system: RPMI-8226
RXF 393 = test system: RXF 393
SF-268 = test system: SF-268
SF-295 = test system: SF-295
SF-539 = test system: SF-539
SK-MEL-28 = test system: SK-MEL-28
SK-MEL-2 = test system: SK-MEL-2
SK-MEL-5 = test system: SK-MEL-5
SK-OV-3 = test system: SK-OV-3
SN12C = test system: SN12C
SNB-19 = test system: SNB-19
SNB-75 = test system: SNB-75
SR = test system: SR
SW-620 = test system: SW-620
T47D = test system: T47D
TK-10 = test system: TK-10
U-251 = test system: U-251
UACC-257 = test system: UACC-257
UACC-62 = test system: UACC-62
UO-31 = test system: UO-31

## COc1cccc(C2CC(C)(N3CCCC3)Oc3cc4c(cc32)OCO4)c1O (centres undefined)
786-0
  GI50: 32.8 µM (inactive)
A498
  GI50: 28.3 µM (inactive)
A549
  GI50: 31.9 µM (inactive)
ACHN
  GI50: 36.7 µM (inactive)
BT-549
  GI50: 16.9 µM (inactive)
CAKI-1
  GI50: 31.7 µM (inactive)
CCRF-CEM
  GI50: 15.2 µM (inactive)
COLO 205
  GI50: 19.1 µM (inactive)
DU-145
  GI50: 32 µM (inactive)
EKVX
  GI50: 63.2 µM (inactive)
HCC 2998
  GI50: 23 µM (inactive)
HCT-116
  GI50: 13.2 µM (inactive)
HCT-15
  GI50: 11.3 µM
HL-60
  GI50: 15.4 µM (inactive)
HOP-62
  GI50: 27 µM (inactive)
HOP-92
  GI50: 31.3 µM (inactive)
HT-29
  GI50: 19.1 µM (inactive)
Hs-578T
  GI50: 21.5 µM (inactive)
IGROV-1
  GI50: 26.2 µM (inactive)
K562
  GI50: 9.31 µM (inactive)
KM12
  GI50: 22 µM (inactive)
LOX IMVI
  GI50: 28.8 µM (inactive)
M14
  GI50: 17.3 µM (inactive)
MCF7
  GI50: 39.1 µM (inactive)
MDA-MB-231
  GI50: 19.1 µM (inactive)
MDA-MB-435
  GI50: 4.39 µM (inactive)
MDA-N
  GI50: 2.54 µM (inactive)
MOLT-4
  GI50: 21.8 µM (inactive)
Malme-3M
  GI50: 24.8 µM (inactive)
NCI-H226
  GI50: 19.1 µM (inactive)
NCI-H23
  GI50: 27.4 µM (inactive)
NCI-H460
  GI50: 28.2 µM (inactive)
NCI-H522
  GI50: 19.1 µM (inactive)
NCI/ADR-RES
  GI50: 20.8 µM (inactive)
OVCAR-3
  GI50: 20 µM (inactive)
OVCAR-4
  GI50: 48.1 µM (inactive)
OVCAR-5
  GI50: 29.7 µM (inactive)
OVCAR-8
  GI50: 30.2 µM (inactive)
PC-3
  GI50: 10.6 µM (inactive)
RPMI-8226
  GI50: 21.3 µM (inactive)
RXF 393
  GI50: 26.7 µM (inactive)
SF-268
  GI50: 30.3 µM (inactive)
SF-295
  GI50: 22.1 µM (inactive)
SF-539
  GI50: 19.4 µM (inactive)
SK-MEL-28
  GI50: 22.5 µM (inactive)
SK-MEL-2
  GI50: 16.5 µM (inactive)
SK-MEL-5
  GI50: 12.4 µM (inactive)
SK-OV-3
  GI50: 29.6 µM (inactive)
SN12C
  GI50: 25.6 µM (inactive)
SNB-19
  GI50: 37.6 µM (inactive)
SNB-75
  GI50: 15.5 µM (inactive)
SR
  GI50: 3.81 µM (inactive)
SW-620
  GI50: 25.8 µM (inactive)
T47D
  GI50: 30.8 µM (inactive)
TK-10
  GI50: 37.3 µM (inactive)
U-251
  GI50: 25.1 µM (inactive)
UACC-257
  GI50: 35.4 µM (inactive)
UACC-62
  GI50: 22.1 µM (inactive)
UO-31
  GI50: 32.5 µM (inactive)

From ChEMBL document CHEMBL1201862, “PubChem BioAssay data set” (2004)
